Patent publication US10413541B2, “Oxabicycloheptanes and oxabicycloheptenes for the treatment of depressive and stress disorders” (LIXTE BIOTECHNOLOGY, INC., priority 2015, dated 2019)

How the values were obtained:
GIRK channels = assay: GTPγS-induced Ba2+-sensitive outward current (I-GTPγS) in LHb neurons of brain slices; assay type: cell-based, mice; conditions: LB100 in the bath; for Ba2+ sensitive I-GTPγS current: GTPγS 100 μM internal
Procedure: Animals were anesthetized with Ketamine/Xylazine (50 mg/10 mg Kg-1 i.p.; Sigma-Aldrich, France). The preparation of LHb-containing brain slices was done in bubbled ice-cold 95% O2/5% CO2-equilibrated solution containing (in mM): cholineCl 110; glucose 25; NaHCO3 25; MgCl2 7; ascorbic acid 11.6; Na+-pyruvate 3.1; KCl 2.5; NaH2PO4 1.25; CaCl2 0.5. Sagittal slices (250 μm) were stored at room temperature in 95% O2/5% CO2-equilibrated artificial cerebrospinal fluid (ACSF) containing (in mM): NaCl 124; NaHCO3 26.2; glucose 11; KCl 2.5; CaCl2 2.5; MgCl2 1.3; NaH2PO4 1. Recordings (flow rate of 2.5 ml/min) were made under an Olympus-BX51 microscope (Olympus, France) at 32° C. Currents were amplified, filtered at 5 kHz and digitized at 20 kHz. Access resistance was monitored by a step of −4 mV (0.1 Hz). Experiments were discarded if the access resistance increased more than 20%.
Cell-attached recordings in ACSF were performed in GΩ seal with a Vc=0 and Hc=0. Whole-cell voltage clamp recordings were achieved to measure GABAB-GIR currents in presence of Bicuculine (10 μM), NBQX (20 μM) and AP5 (50 μM). […] GABAB-GIRK currents were confirmed by antagonism with either 10 μM of CGP54626, a specific GABAB antagonist or 1 mM Ba^2, a selective inhibitor of inward rectifiers. For the GTPγS experiment, 100 μM of GTPγS was added to the internal solution in place of Na3GTP.

C57Bl/6J mice = assay: Re-exposure to the context test (freezing) after FsE; assay type: in vivo; conditions: LB100 ip 6-8 h after FsE; one day after FsE
Procedure: The inescapable shock procedure was previously described in Stamatakis and Stuber 2012. Briefly, we placed mice into standard mouse behavioral chambers (Imetronics) equipped with a metal grid floor. We let them to habituate at the new environment for 5 m. In a 20 m session animals received either 19 or 0 unpredictable foot shocks (1 mA, 500 ms) with an interstimulus interval of 30, 60 or 90 s. We anesthetized mice for patch-clamp electrophysiology 1 h, 24 h, 7 d, 14 d or 30 d after the session ended.
For LB treatment experiments, mice were injected with LB (1.5 mg/Kg i.p.) or saline 6-8 hours after the FsE. The effects of the treatment on the LHb excitability and GABAB-GIRKs currents as well as the behavioural assay were assessed at day 1 or 7. For both electrophysiology and behaviour once treated the animal were housed in groups of 4-6 and let undisturbed until the day of the test.
For this experiment mice were re-exposed 24 h after to the chamber where they received (or not) shocks for a total duration of 5 m. […] The behavior was scored according to a 5-sec instantaneous time-sampling procedure every 25 sec (Fanselow and Bolles 1979). The observer scored the animal as freezing, scanning or active at that instant and then proceeded to the next chamber. […] Thus each animal was scored […], yielding 10 observations for each mouse for total 5 minutes session. […]

PP2A = PP2A (Homo sapiens, UniProt P67775); conditions: cited from earlier work
PP2A, sequence (P67775 whole entry): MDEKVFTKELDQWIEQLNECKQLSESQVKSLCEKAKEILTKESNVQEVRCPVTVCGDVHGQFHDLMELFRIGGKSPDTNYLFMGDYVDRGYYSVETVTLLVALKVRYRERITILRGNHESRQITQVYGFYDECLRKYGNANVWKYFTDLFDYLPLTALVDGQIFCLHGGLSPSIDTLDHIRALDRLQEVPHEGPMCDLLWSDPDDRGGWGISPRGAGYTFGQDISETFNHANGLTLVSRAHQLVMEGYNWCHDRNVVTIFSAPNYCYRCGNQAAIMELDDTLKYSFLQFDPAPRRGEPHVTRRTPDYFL
PP2A, sequence (P30153 whole entry partner): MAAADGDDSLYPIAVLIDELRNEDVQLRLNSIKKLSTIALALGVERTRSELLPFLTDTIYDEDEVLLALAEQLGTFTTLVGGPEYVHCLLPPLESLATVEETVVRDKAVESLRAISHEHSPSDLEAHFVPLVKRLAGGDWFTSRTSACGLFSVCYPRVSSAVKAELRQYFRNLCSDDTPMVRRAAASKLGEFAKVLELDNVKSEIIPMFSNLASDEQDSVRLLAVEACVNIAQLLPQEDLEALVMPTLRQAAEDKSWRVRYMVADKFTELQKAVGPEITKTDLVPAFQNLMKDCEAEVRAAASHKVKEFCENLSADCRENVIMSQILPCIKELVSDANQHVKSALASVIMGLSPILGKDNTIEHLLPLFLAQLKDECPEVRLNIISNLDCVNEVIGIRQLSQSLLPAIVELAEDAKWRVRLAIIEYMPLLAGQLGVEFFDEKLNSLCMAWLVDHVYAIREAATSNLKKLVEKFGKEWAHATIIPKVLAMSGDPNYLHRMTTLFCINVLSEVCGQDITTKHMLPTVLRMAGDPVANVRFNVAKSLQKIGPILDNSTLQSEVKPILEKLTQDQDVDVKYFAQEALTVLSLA

CN1CCN(C(=O)C2C(C(=O)O)[C@H]3CC[C@@H]2O3)CC1 (some centres unmarked) [LB100]
Ba2+ sensitive I-GTPγS in FsE animals vs CTRL (GIRK channels): restored
Ba2+ sensitive I-GTPγS current (GIRK channels; CTRL mice): 94.27±13.29 pA
Ba2+ sensitive I-GTPγS current (GIRK channels; FsE mice): 110.6±20.79 pA
Ba2+ sensitive I-GTPγS in FsE animals vs CTRL (GIRK channels; listed as LB-100): comparable to the control group
Freezing score in the re-exposure to the context test (C57Bl/6J mice): did not affect
Duration of inhibition of PP2A activity (PP2A; 1.5 mg/Kg (Lu et al., 2009b)): about 12 hours
Time of peak of PP2A-inhibiting activity (PP2A; 1.5 mg/Kg (Lu et al., 2009b)): ~8 h
PP2A inhibition (PP2A; in vitro in human cancer cells and in xenografts of human tumor cells in mice when given parenterally): inhibitor of PP2A
